We go through three molecules from patent US6274568A, “Compounds for altering cell surface sialic acids and methods of use therefor” (priority 1999, dated 2001).

“Also recorded” adds a separate entry of the source. Where only a bound is given, the exact number is not on record here.

The test system of data set [1] is NG108-15 cells. Kind of data set: Uptake of mannosamine precursors and conversion to sialic acids (precursor pool, gangliosides, glycoproteins) in NG108-15 cells, HPLC. The format is cell-based, mouse neuroblastoma/rat glioma hybrid. As to the method: (§1) Cells were harvested using hypertonic Ca^2+ - and Mg^2+ -free phosphate-buffered saline containing 1 mM EDTA, collected by centrifugation, and homogenized in ice-cold water using a Potter-Elvehjem glass/Teflon homogenizer. Methanol (2.6 volumes) was added, the suspension mixed and brought to ambient temperature, then chloroform (1.3 volumes, based on the original homogenate) was added and the suspension mixed vigorously. The suspension was centrifuged 30 min at 2,000×g. After collecting the supernatant, the pellet (containing precipitated proteins) was resuspended in water or concentrated ammonium hydroxide and a portion was used for protein assay (BCA, Pierce, Rockford, Ill.). The supernatant was partitioned by adjusting the chloroform-methanol-water ratio to 4:8:5.6 by addition of water, mixing thoroughly, and centrifuging as above. The upper phase was collected and a portion was subjected to reverse phase chromatography, using Sep-Pak C18 cartridges (Waters, Milford, Mass.), to isolate gangliosides (Schnaar, Methods Enzymol. 230:371, 1994).
(§2) To quantify and identify sialic acids, a portion of resolublized protein, organic/aqueous soluble pool, or reverse-phase purified gangliosides was evaporated to dryness in a 500-μl polypropylene tube and 20 μl of 0.1 M HCl/0.25 M NaCl was added. One Ampliwax bead (Perkin Elmer Corp, Foster City, Calif.) per reaction was added to block evaporation, and the sample hydrolyzed for 3 h at 80° C. Released sialic acids were analyzed by injecting an aliquot (1-10 μl) onto a Dionex high pressure liquid chromatography system (Dionex Corporation, Sunnyvale, Calif.) using a HPIC-AS6 column and a pulsed amperometric detector. Elution solutions were: A, 0.75 mM NaOH; B, 200 mM NaOH; and C, 400 mM sodium acetate in 50 mM NaOH. NeuAc and NeuPr were resolved by elution with 40% A, 50% B, 10% C for 15 min at 1 ml/min. NeuGc was resolved in separate injections using step gradient elution: 0-1.8 min, 18% A, 50% B, 32% C; 2-10 min, 40% B, 60% C. Sialic acids were identified by comparison of their elution time with those of standard NeuAc, NeuPr and NeuGc and were quantified in comparison to a standard curve of commercial NeuAc (for NeuAc and NeuPr) or NeuGc.
(§3) To confirm that the quantified peaks represented sialic acids, 10 μl of acid hydrolysates were treated with 1 μl of 1 M sodium phosphate (pH 7.2) and 10 μl of 0.1 M NaOH. Neutralized samples were incubated at 37° C. for 2 h with or without 0.9 U of N-acetylneuraminic acid aldolase (Sigma), 32 μM NADH and 0.1 μg lactate dehydrogenase. Sialic acid content in the ganglioside and glycoprotein fractions is expressed per mg of total cell protein. Precursor pool sialic acid (sialic acid plus CMP-sialic acid) was calculated by subtracting the ganglioside value from the organic/aqueous pool value, both expressed per mg of cell protein.
Sialic acid is biosynthesized from the precursor sugar N-acetylmannosamine (FIG. 2). In the present invention, sialic acids are converted on live neuronal cells from NeuAc, which is a key determinant for MAG binding, to NeuGc, which is non-permissive for MAG binding. A potential NeuGc precursor, N-glycolylmannosamine monoacetate (ManNGcMA, FIG. 1, R1 =H) was tested for its ability to generate altered sialic acids in neuronal and non-neuronal cells. N-propanoylmannosamine (ManNPr) and other N-acyl mannosamine derivatives have been used to modify glycoprotein associated sialic acids to the corresponding N-acylneuraminic acid. N-propanoyl-mannosamine (ManNPr), was used as a positive control. […] Cell pellets were fractioned into lipid associated, protein associated, and intracellular (lipid and cytoplasmic which may consist of oligosaccharide-bound, free, or CMP-activated sialic acid) sialic acids and hydrolyzed to release sialic acid. The hydrolyzed samples were then analyzed by HPLC to determine sialic acid content. […]

In data set [2] the test system is Jurkat cells. Kind of data set: Uptake of mannosamine precursors and conversion to sialic acids in Jurkat cells, HPLC. As to conditions: 20 mM precursor, 48 h. The format is cell-based, human. As to the method:
as §1, §2, §3
Sialic acid is biosynthesized from the precursor sugar N-acetylmannosamine (FIG. 2). In the present invention, sialic acids are converted on live neuronal cells from NeuAc, which is a key determinant for MAG binding, to NeuGc, which is non-permissive for MAG binding. A potential NeuGc precursor, N-glycolylmannosamine monoacetate (ManNGcMA, FIG. 1, R1 =H) was tested for its ability to generate altered sialic acids in neuronal and non-neuronal cells. N-propanoylmannosamine (ManNPr) and other N-acyl mannosamine derivatives have been used to modify glycoprotein associated sialic acids to the corresponding N-acylneuraminic acid. N-propanoyl-mannosamine (ManNPr), was used as a positive control. Jurkat human lymphoma cells and NG108-15 cells (rodent neuroblastoma/glioma hybrid cells) were incubated in 20 mM synthetic precursor or control precursor (N-acetylmannosamine, ManNAc) for 48 h, then harvested. Cell pellets were fractioned into lipid associated, protein associated, and intracellular (lipid and cytoplasmic which may consist of oligosaccharide-bound, free, or CMP-activated sialic acid) sialic acids and hydrolyzed to release sialic acid. […]

Data set [3] relates to Jurkat cells. Kind of data set: Morphology and viability of precursor-treated Jurkat cells. The format is cell-based, human.
Method: Jurkat cells were maintained in RPMI Medium 1640 (Gibco Life Technologies, Gaithersburg, Md.) supplemented with 10% fetal bovine serum. Both cell types were cultured at 37° C. in a humidified atmosphere of 90% air/10% CO2. For treatment with sialic acid precursors, mannosamine derivatives were diluted into the appropriate medium and filter sterilized. The growth medium was then replaced and cells were cultured in the presence of the precursor for 24-144 h.
Data set [4] has as its system NG108-15 cells.
Method: Cell growth rates were determined in control cultures (.box-solid.), in cultures treated with 0.08 mM (.circle-solid.), 0.25 mM (.smallcircle.), or 1 mM (.quadrature.) ManNGcPA, and in cultures treated with 0.25 mM (.tangle-solidup.) or 1 mM (Δ) glucose pentaacetate.
NG108-15 cells were maintained in Dulbecco's modified Eagle's medium (high glucose formulation) containing 5% iron-enriched calf serum, 100 μM hypoxanthine, 16 μM thymidine, and 5 μM aminopterin. […] Both cell types were cultured at 37° C. in a humidified atmosphere of 90% air/10% CO2. For treatment with sialic acid precursors, mannosamine derivatives were diluted into the appropriate medium and filter sterilized. […] In experiments testing ManNGcPA, all cells (control and experimental) were grown in the presence of 0.5% (v/v) DMSO, the carrier for ManNGcPA.
Data set [5] has as its system myelin-associated glycoprotein (MAG). To be noted: cited from earlier work.
The test system of the next data set is sialoadhesin. To be noted: cited from earlier work.
For data set [6], the system named is NG108-15 cells. As to conditions: cited from earlier work.
Setting [7] is: NG108-15, 20 mM precursor, 48 h.

As to `CCC(=O)N[C@@H]1C(O)O[C@H](CO)[C@@H](O)[C@@H]1O` (stereo partly shown) [ManNPr, N-Propanoylmannosamine, reference compound], the “incorporation into gangliosides and glycoproteins as NeuPr” value in the data set on NG108-15 cells [1] is recorded as “efficiently incorporated”. Besides, in the data set on NG108-15 cells [1] (20 mM precursor, 48 h), the “increase in intracellular sialic acid (precursor pool)” value was determined as 4 fold, the “increase in total glycoprotein sialic acid” value is on record as “≈ 1.4 fold” and the “sialic acid precursor pool as NeuPr” value is reported as > 95%. In the data set with NG108-15 cells [1] (setting [7]), the “ganglioside (lipid associated) sialic acid in the form of NeuPr” value was 70% and ≈ 70%; the “intracellular sialic acid pool as NeuPr” value was “composed predominantly”; the “levels of intracellular sialic acid” value is given as “high levels”; the “size of the ganglioside pool” value is reported as “remained relatively constant”. Also, the “levels of intracellular sialic acid” value in the data set on NG108-15 cells [1] (NG108-15, 20 mM precursor, 48 h, listed as N-propanoylmannosamine) is recorded as “high levels of intracellular sialic acid similar to that observed with N-acetylmannosamine treatment”. Besides, in the data set on Jurkat cells [2], the “glycoprotein associated sialic acid in the form of NeuPr” value was “≈ 50%”, the “intracellular sialic acid pool as NeuPr” value is recorded as “composed predominantly”, the “levels of intracellular sialic acid” value was “high levels” and the “lipid associated sialic acid in the form of NeuPr” value is 33%. The “levels of intracellular sialic acid” value with Jurkat cells [2] (listed as N-propanoylmannosamine) is “high levels of intracellular sialic acid similar to that observed with N-acetylmannosamine treatment”. In addition, the “alteration of cell morphology or viability” value in the data set on Jurkat cells [3] was “did not seem to alter cell morphology or viability significantly”. For the same molecule, the “alteration of cell morphology or viability” value in the data set on NG108-15 cells [4] is reported as “did not seem to alter cell morphology or viability significantly”.

`CC(=O)N[C@H]1[C@H]([C@H](O)[C@H](O)CO)OC(O)(C(=O)O)C[C@@H]1O` (stereo partly shown) [NeuAc, N-acetylneuraminic acid]: the “support of MAG binding / recognition” value in data set [5] is “support MAG binding; also recorded: MAG and sialoadhesin bind NeuAc”. Moreover, the sialoadhesin binding result with sialoadhesin was “MAG and sialoadhesin bind NeuAc”.

B1: MAG: Myelin associated glycoprotein (MAG), a sialic acid binding lectin and member of the siglec family (protein, UniProt P20916 20-626, looked up)
Myelin-associated glycoprotein: GHWGAWMPSSISAFEGTCVSIPCRFDFPDELRPAVVHGVWYFNSPYPKNYPPVVFKSRTQVVHESFQGRSRLLGDLGLRNCTLLLSNVSPELGGKYYFRGDLGGYNQYTFSEHSVLDIVNTPNIVVPPEVVAGTEVEVSCMVPDNCPELRPELSWLGHEGLGEPAVLGRLREDEGTWVQVSLLHFVPTREANGHRLGCQASFPNTTLQFEGYASMDVKYPPVIVEMNSSVEAIEGSHVSLLCGADSNPPPLLTWMRDGTVLREAVAESLLLELEEVTPAEDGVYACLAENAYGQDNRTVGLSVMYAPWKPTVNGTMVAVEGETVSILCSTQSNPDPILTIFKEKQILSTVIYESELQLELPAVSPEDDGEYWCVAENQYGQRATAFNLSVEFAPVLLLESHCAAARDTVQCLCVVKSNPEPSVAFELPSRNVTVNESEREFVYSERSGLVLTSILTLRGQAQAPPRVICTARNLYGAKSLELPFQGAHRLMWAKIGPVGAVVAFAILIAIVCYITQTRRKKNVTESPSFSAGDNPPVLFSSDFRISGAPEKYESERRLGSERRLLGLRGEPPELDLSYSHSDLGKRPTKDSYTLTEELAEYAEIRVK
Turning to B1, the “neurite outgrowth from NG108-15 cells” value in the data set with NG108-15 cells [6] is on record as “inhibited”.
